How the values were obtained:
EGFR [1] = assay: EGFR expression and phosphorylation in xenograft tumors (immunohistochemistry, Western blot); assay type: in vivo, athymic (nude) mice
Procedure: FIG. 6B illustrates expression of EGFR and Akt. Tissue sections were obtained from human pancreatic cancer tumors growing in nude mice as described in FIG. 5, and stained for pEGFR and pAkt as described in Materials and Methods section (below). Middle, EGFR and Akt expression of pancreatic tumors from same crocetinic acid-treated and untreated control animals using Western Blot as described in FIG. 4B, was determined. Phophorylated (p-EGFR) and total protein of EGFR and phophorylated Akt and total Akt expressed as ratio between them normalized with b-actin was shown (bottom);
The immuno-Western blot analyses were the same as described earlier by Banerjee et al. (Reference 26). Briefly, MIA-PaCa-2 and BxPC-3 cells following treatment with or without crocetin and tumor samples were homogenized. […] Protein concentration was measured by using the Comassie blue reagent assay (Pierce, Rockford, Ill.). […] The antigen-antibody reactions were detected with HRP-conjugated anti-rabbit or anti-mouse IgG for one hour in room temperature. Immunoreactions were visualized by the ECL ([…]) chemiluminescence reagent kit (Pierce, Rockford, Ill.) and relative expression of proteins were calculated by densitometric analyses using ID image Analysis Software version 3.6 (Eastman Kodak Company, Rochester, N.Y.). […]

[2] = system: MIA-PaCa-2 xenograft tumor; assay: Apoptosis in xenograft tumors (cleaved caspase 3, TUNEL, Bax/Bcl-2); assay type: in vivo, athymic (nude) mice
Procedure: FIG. 6C illustrates apoptosis. Top, tumor tissues were processed for Cleaved Caspase 3 immunohistochemistry. […] Caspase 3, Bax and Bcl-2 (middle) expressions of pancreatic tumors from same crocetinic acid-treated and control animals using Western Blot were carried out and Bax/Bcl-2 ratio was also determined (bottom). Columns, mean from six different animals; bars, SD (B and C). *, P<0.05; **, P<0.001 versus untreated control (Student's t test);
To explore whether the regression of tumor growth by crocetin is due to inhibition of proliferation, apoptotic cell death or both, we first evaluated PCNA (proliferating cell nuclear antigen) expression and then EGFR expression in tumors using histochemical analysis. […] Next, apoptosis by TUNEL assay was investigated in the tumors of mice treated with or without crocetin.

[3] = in vivo; cited from earlier work
Panc-1 cells [4] = assay: Click-it EdU microplate proliferation assay; assay type: cell-based, human; settings: for potency in proliferation assay relative to crude crocetin: Panc-1, 48-72 hours, versus CC; for inhibiting proliferation: Panc-1 cells
Procedure: (§1) Pancreatic cancer cells were plated at desired density onto 96-well corning tissue culture plates. After 24 hours, cells were treated for 72 hours with different concentrations (1-50 μM) of purified crocetin and crude/commercial crocetin. Cells were labelled with Click-it EdU and were fixed. Then fixed cells were incubated with anti-Oregon Green antibody conjugated to horseradish peroxidase and measured flurescent product (excitation/emission˜568/585).
[…] We have also used higher doses (25, 50 and 100 μM) in this experiment and it needs about 50-100 concentration of CC for inhibition of proliferation and increase of apoptosis at the level of 1 and 10 μm of PC. Treated cells were then labeled with Brdu and cells were assayed by Invitrogen Click-it Edu fluorimetric microplate proliferation kit and apoptosis assay kit.

Panc-1 cells [5] = assay: Apoptosis assay (apoptosis kit, Annexin V-FITC flow cytometry and fluorescence microscopy); assay type: cell-based, human; settings: for potency in apoptosis assay relative to crude crocetin: Panc-1, 48-72 hours, versus CC; for stimulating apoptosis: Panc-1 cells
Procedure: (§2) FITC Annexin V and PI for flow cytometry provide a rapid and convenient assay for apoptosis. Treated and control cells were incubated with annexin V conjugate and propidium iodide (PI). Then cells were deposited onto slides for fluorescence microscopy. Cells were also used for flow cytometry analysis for live, apoptotic and dead cells using annexin V conjugated to green-fluorescent FITC dye and propidium iodide (PI). Propidium iodide stains necrotic cells with red fluorescence whereas green FITC dye stains apoptotic cells.
We treated Panc-1 pancreatic cancer cells with either purified crocetin or PC (fraction 5 of FIG. 2A) derived from alkaline treatment or crude commercial crocetin or CC (1 and 10 μM concentrations) for 48-72 hours. We have also used higher doses (25, 50 and 100 μM) in this experiment and it needs about 50-100 concentration of CC for inhibition of proliferation and increase of apoptosis at the level of 1 and 10 μm of PC. Treated cells were then labeled with Brdu and cells were assayed by Invitrogen Click-it Edu fluorimetric microplate proliferation kit and apoptosis assay kit.

BxPc3 cells [6] = assay: Proliferation assay in BxPC3 cells; assay type: cell-based, human; settings: comparison to commercial crocetin
Procedure: as §1

BxPc3 cells [7] = assay: Apoptosis assay in BxPC3 cells; assay type: cell-based, human; settings: comparison to commercial crocetin
Procedure: as §2

Panc-1 cells [8] = assay: Migration of Panc-1 cells in Bowden chamber; assay type: cell-based, human; settings: 1 and 10 μM, 24 hours, compared with CC
Procedure: FIG. 4A illustrates effect of purified crocetin (PC) and crude crocetin (CC) on migration of Panc-1 cells. Panc-1 cells were incubated with PC and CC at concentrations of 1 and 10 μM in Bowden chamber for 24 hours and migration was studied.

EGFR [9] = assay: Western blot of EGFR (phosphorylated and total) in Panc-1 cells; assay type: cell-based, human; design: dose or concentration left out as unconfirmed; settings: Panc-1, compared with CC
Procedure: (§3) FIG. 4B illustrates effect of purified crocetin (PC) and crude crocetin (CC) on EGFR (epidermal growth factor receptor), Akt signaling and Bax/Bcl-2 on Panc-1 cells.
(§4) The immuno-Western blot analyses were the same as described earlier by Banerjee et al. (Reference 26). Briefly, MIA-PaCa-2 and BxPC-3 cells following treatment with or without crocetin and tumor samples were homogenized. Then, both cell and tumor lysates were spun at 18000 g for 1 hr at 4° C., and the supernatants were collected for immunodetection. Protein concentration was measured by using the Comassie blue reagent assay (Pierce, Rockford, Ill.). Equal amount of protein were resolved in 10% SDS-PAGE, transferred onto nitrocellulose membranes. Membranes were blocked with super block (Pierce, Rockford, Ill.) followed by incubation with appropriate primary antibodies at 4° C., overnight. The antigen-antibody reactions were detected with HRP-conjugated anti-rabbit or anti-mouse IgG for one hour in room temperature. Immunoreactions were visualized by the ECL ([…]) chemiluminescence reagent kit (Pierce, Rockford, Ill.) and relative expression of proteins were calculated by densitometric analyses using ID image Analysis Software version 3.6 (Eastman Kodak Company, Rochester, N.Y.).

Akt = assay: Western blot of Akt signaling in Panc-1 cells; assay type: cell-based, human; settings: 10 mM, listed as PC
Procedure: as §3, §4

Bax/Bcl-2 = assay: Western blot of Bax/Bcl-2 in Panc-1 cells; assay type: cell-based, human; settings: Panc-1, Western blot
Procedure: as §3, §4

[10] = system: pancreatic CSCs (pancospheres); assay: Pancospheroid formation assay; assay type: cell-based; settings: dose dependent, 0, 1, 5, 10, 20 μM
Procedure: FIG. 7C illustrates spheroid formation assay. Stemness pancreatic cancer cells ware determined using spheroid assay in PC versus CC in different concentrations (0, 1, 5, 10, 20 μM); and
Spheroids were prepared as previously described (Reference 17). Briefly, 1000 cells/well in DMEM/F12 (Invitrogen, France) supplemented with EGF (20 ng/ml, Invitrogen) and B27 (1×, Invitrogen) were distributed in ultra-low attachment plates 6 well plates. Plates were placed in a humidified atmosphere of 5% CO2 at 37° C. Numbers of pancosphers formation, after 6-8 days culture, were counted under a light microscopy and quantified by Celigo software.

[11] = system: Sonic Hedgehog signaling pathway; assay: Western blot of Sonic Hedgehog signaling pathway proteins and target genes; assay type: cell-based
From the text: FIG. 7A illustrates western blots of onic Hedgehog signaling pathways proteins (sonic hedgehog, Gli-1, SUFU, Smoothened with beta-actin) expressions in treated lanes of I (CC), 2 (PC #5), 3 (PC #3) and 4 (PC #1).
FIG. 7B illustrates sonic hedgehog target genes: Patched, p21, cyclin D1 with actin treated by CC (Lane 1) and PC #5 (Lane 2), PC #3 (Lane 3) and PC #1 (Lane 4).
as §4

DCLK-1 = assay: Western blot of DCLK1 expression; assay type: cell-based, human; design: dose or concentration left out as unconfirmed; settings: Mia-PaCa2 cells
Procedure: FIG. 7D illustrates DCLK1 expression. Western blot analysis of DCLK1 after treatment of Mia-PaCa2 cells treated with 10 mM of CC and PC of #5, #3 and #1 HPLC fractions.
as §4

[12] = system: MIA-PaCa-2 xenograft tumor; assay: Pancreatic cancer xenograft tumor growth in athymic nude mice; assay type: in vivo; settings: 0.5 mg/kg, oral, 0 to 21 days, in comparison to control
Procedure: FIG. 5 illustrates pancreatic cancer xenograft tumor growth in athymic (nude) mice. […] The tumor size was measured (right) from the start date of crocetin treatment (0 day) to end date of crocetin treatment (21 days) in comparison to control (no treatment). Number of animals is 5 in the control and treated group;
MIA-PaCa-2 cells (2.5×10^6) were injected into the right hind leg of each mouse for the development of tumor. The mice were divided into two groups (6 mice per group) with a control group and crocetin treatment group. After development of palpable tumor, the tumor size was measured twice in a week. When tumors are well established (approximately 0.34 cm^3); treatment was started. The treatment group received crocetin at 0.5 mg/kg/day orally dissolved in 15 ml of peptamen for 12 hours during dark for 30 days and the dose is in agreement with other investigators (References 14, 17, 20 and 27). Tumor size was monitored twice weekly, and its volume calculated as […], where a=length and b=width. Control group received only peptamen. The mice were given solid food during light time following liquid peptamen diet at dark. All mice were sacrificed after 30 days following treatment and tumors were taken out and stored at −80° C. […]

PCNA = PCNA histochemical analysis of xenograft tumor tissue; assay type: in vivo, athymic (nude) mice; settings: versus untreated
Procedure: FIG. 6A illustrates expression of PCNA (proliferating cell nuclear antigen). Cell proliferation in tumor tissues, obtained from athymic mice as depicted in FIG. 5, was evaluated by staining for PCNA using histochemical analysis.
Immunohistochemical analysis was performed according to our previous described method (27) using Zymed broad range immunohistochemical kits (Zymed Laboratories, CA). Tumor tissue samples were fixed in 4% buffered formalin and embedded in paraffin. The serial sections of 5 μm were cut. The tissue sections were deparaffinized and were hydrated in different concentrations of ethanol (i.e. 100%, 90%, 70%, and 50%). Endogenous peroxidase activity was blocked at room temperature by incubating in hydrogen peroxide in methanol (1:9). Slides were washed with PBS (phosphate buffered saline) and nonspecific binding was blocked by blocking solution for 10 min. The sections were incubated with respective primary antibody in a humidified chamber at 4° C. overnight. The tissues were incubated with biotynylated secondary antibody (Zymed kit). The slides were then incubated with HRP (horseradish peroxidase) linked enzyme conjugate for 10 min. Positive reactions were visualized by incubating slides with stable 3,3′-diaminobenzidine (DAB) solution (Zymed kit) and counterstained with haematoxylin. The slides were dehydrated and mounted in permount for microscopic examination.

pancreatic cancer cells = assay: Cytotoxicity against pancreatic cancer cells; assay type: cell-based; settings: dose- and time-dependent
Procedure: The human pancreatic adenocarcinoma cell lines MIA-PaCa-2, BxPC3, Capan-1 and ASPC-1 were obtained from the American Type Culture Collection (ATCC, Manassas, Va., USA) and grown in Dulbecco's modified Eagles medium (DMEM, Sigma Chemical Co, St Louis, Mo.) supplemented with 1 mM sodium pyruvate (Fisher Chemical Company), 100 U/ml of penicillin and 100 U/ml of streptomycin (Sigma Chemical Co, St Louis, Mo.) and 10% FBS (Hyclone, Road Logan, Utah) at 37° C. in a humidified tissue culture incubator containing 5% CO2 and 95% air. ˜70% confluent cells were treated with different concentrations (1-50 μM) of purified crocetinic acid and commercial crocetin for 72 h.

human cells = settings: cited from earlier work
[13] = in comparison to commercial crocetin

In the case of CC(/C=C/C=C(\C)C(=O)O)=C\C=C\C=C(C)\C=C\C=C(/C)C(=O)O [crocetin], the “EGFR activity (ratio of phosphorylated and unphosphorylated form) in tumors” value (EGFR [1]) is reported as “significantly impaired”, the “EGFR expression and phosphorylation in tumors” value (EGFR [1]; versus untreated) is reported as “significantly reduced” and the “ratio of Bax/Bcl-2 in pancreatic tumors” value ([2]; xenograft tumors, Western blot) is reported as “significantly increased”. For the same molecule, the “TUNEL assay positive cells in tumors” value ([2]; xenograft tumors, versus untreated) was “elevated markedly” and the LD50 [3] was 2000 mg/kg.

For CC(C=CC=C(C)C(=O)O)=CC=CC=C(C)C=CC=C(C)C(=O)O [crocetinic acid], the inhibition in proliferation (Panc-1 cells [4]; 1 µM, compared with CC) was “highly potent inhibition”, the “potency in proliferation assay relative to crude crocetin” value (Panc-1 cells [4]; listed as #5) was 50 times and the “potency in proliferation assay relative to crude crocetin” value (Panc-1 cells [4]; listed as PC) was 50 times. The “potency in proliferation assay relative to crude crocetin” value (Panc-1 cells [4]; listed as purified crocetin) was “about 50 times”, the inhibiting proliferation (Panc-1 cells [4]) was “significantly inhibited” and the inhibiting proliferation (Panc-1 cells [4]; listed as #5) was “promising effect”. The apoptosis (Panc-1 cells [5]; 1 µM, compared with CC) was “increase”, the “potency in apoptosis assay relative to crude crocetin” value (Panc-1 cells [5]; listed as #5) was 50 times and the “potency in apoptosis assay relative to crude crocetin” value (Panc-1 cells [5]; listed as PC) was 50 times. The “potency in apoptosis assay relative to crude crocetin” value (Panc-1 cells [5]; listed as purified crocetin) was “about 50 times”, the stimulating apoptosis (Panc-1 cells [5]) was “stimulated apoptosis” and the stimulating apoptosis (Panc-1 cells [5]; listed as #5) was “promising effect”. For the same molecule, the “apoptosis by flow cytometry and fluorescence microscopy” value (Panc-1 cells [5]; lower doses) was “significant increase”, the inhibition of proliferation (BxPc3 cells [6]) was “significantly inhibited” and the stimulation of apoptosis (BxPc3 cells [7]) was “stimulated apoptosis”. For the same molecule, the migration (Panc-1 cells [8]) was “significantly inhibited”, the EGFR phosphorylation (EGFR [9]) was “significantly inhibited” and the “Akt expression and phosphorylation” value (Akt) was “significantly inhibited”. The Bax/Bcl-2 ratio (Bax/Bcl-2) was “increase”, the Bcl-2 (Bax/Bcl-2) was “decrease” and the “number and size of primary and secondary pancospheres (spheroid formation)” value [10] was “decreased”. The “number and size of primary and secondary pancospheres (spheroid formation)” value ([10]; listed as #5) was “significant inhibition”, the Gli1 expression ([11]; Western blot) was “inhibited” and the SUFU expression ([11]; Western blot) was “inhibited”. For the same molecule, the smoothened expression ([11]; Western blot) was “inhibited”, the “cyclin D1 expression” value ([11]; Western blot, target protein) was “inhibited” and the patched expression [11, 13] was “increased expression”. For the same molecule, the “sonic hedgehog (Shh) expression” value [11, 13] was “significantly inhibited”, the patched expression ([11]; in comparison to commercial crocetin, listed as 5) was “increased” and the DCLK-1 expression (DCLK-1) was “significantly inhibited”. For the same molecule, the DCLK-1 expression (DCLK-1; listed as 5) was “reduction”, the tumor growth [12] was “significantly inhibited” and the “PCNA expression in tumors” value (PCNA) was “significantly decreased”. The “apoptosis by cleaved caspase 3 immunohistochemistry in tumors” value ([2]; daily treatment, versus vehicle) was “Increased apoptosis”, the cytotoxicity (pancreatic cancer cells) was “significant cytotoxicity” and the “toxicity to human cells” value (human cells) was “relatively nontoxic”.

Source: US9889105B2, “In vivo method for treating, inhibiting, and/or prophylaxis of cancer, such as pancreatic cancer” (U.S. Department of Veterans Affairs, priority 2010, dated 2018)
